Laboratory results taken from patent publication US11083725B2 (priority 2014, dated 2021).

System: NHBE cells
Experiment: Biolog metabolic array: substrate use by NHBE cells with or without CA09 infection
Format: cell-based, human
Conditions: for Substrate use, 590 nm absorbance normalized to zero hour, 0 hr: Biolog PMM2, 0 hr; for Substrate use, 590 nm absorbance normalized to zero hour, 1 hr: Biolog PMM2, 1 hr; for Substrate use, 590 nm absorbance normalized to zero hour, 5 hr: Biolog PMM2, 5 hr; for Substrate use, 590 nm absorbance normalized to zero hour, 7 hr: Biolog PMM2, 7 hr
[1] = Control (uninfected) NHBE cells
[2] = Virus (CA09-infected, MOI 1) NHBE cells
[3] = Virus: CA09-infected NHBE cells, MOI 1, Biolog PMM2
[4] = Virus (CA09, MOI 1) infected NHBE cells

Row | Structure (SMILES) | 590 nm absorbance normalized to zero hour (substrate use), 1 hr [1] | 590 nm absorbance normalized to zero hour (substrate use), 2 hr [1] | 590 nm absorbance normalized to zero hour (substrate use), 3 hr [1] | 590 nm absorbance normalized to zero hour (substrate use), 4 hr [1] | 590 nm absorbance normalized to zero hour (substrate use), 6 hr [1] | 590 nm absorbance normalized to zero hour (substrate use), 8 hr [1] | 590 nm absorbance normalized to zero hour (substrate use), 9 hr [1] | 590 nm absorbance normalized to zero hour (substrate use), 10 hr [1] | 590 nm absorbance normalized to zero hour (substrate use), 11 hr [1] | Substrate use, 590 nm absorbance normalized to zero hour, 1 hr [1] | Substrate use, 590 nm absorbance normalized to zero hour, 5 hr [1] | Substrate use, 590 nm absorbance normalized to zero hour, 7 hr [1] | 590 nm absorbance normalized to zero hour (substrate use), 1 hr [2] | 590 nm absorbance normalized to zero hour (substrate use), 2 hr [2] | 590 nm absorbance normalized to zero hour (substrate use), 3 hr [2] | 590 nm absorbance normalized to zero hour (substrate use), 4 hr [2] | 590 nm absorbance normalized to zero hour (substrate use), 6 hr [2] | 590 nm absorbance normalized to zero hour (substrate use), 8 hr [2] | 590 nm absorbance normalized to zero hour (substrate use), 9 hr [2] | 590 nm absorbance normalized to zero hour (substrate use), 10 hr [2] | also measured
1 | O=C(CO)[C@@H](O[C@H]1O[C@H](CO)[C@@H](O)[C@H](O)[C@H]1O)[C@H](O)[C@H](O)CO [Turanose] | 0.23 | 0.31 | 0.36 | 0.40 | 0.49 | 0.51 | 0.57 | 0.57 | 0.60 | 0.23 | 0.55 | 0.44 | 0.20 | 0.28 | 0.34 | 0.36 | 0.48 | 0.56 | 0.61 | 0.60 | 590 nm absorbance normalized to zero hour (substrate use), 0 hr [1]: 1.00; Substrate use, 590 nm absorbance normalized to zero hour, 0 hr [1]: 1.00; 590 nm absorbance normalized to zero hour (substrate use), 0 hr [2]: 1.00; 590 nm absorbance normalized to zero hour (substrate use), 5 hr [2]: 0.44; 590 nm absorbance normalized to zero hour (substrate use), 7 hr [2]: 0.51; 590 nm absorbance normalized to zero hour (substrate use), 11 hr [2]: 0.55; 590 nm absorbance normalized to zero hour (substrate use), 0 hr [3]: 1.00; 590 nm absorbance normalized to zero hour (substrate use), 1 hr [3]: 0.20; 590 nm absorbance normalized to zero hour (substrate use), 2 hr [3]: 0.28; 590 nm absorbance normalized to zero hour (substrate use), 3 hr [3]: 0.34; 590 nm absorbance normalized to zero hour (substrate use), 4 hr [3]: 0.36; 590 nm absorbance normalized to zero hour (substrate use), 5 hr [3]: 0.44; 590 nm absorbance normalized to zero hour (substrate use), 6 hr [3]: 0.48; 590 nm absorbance normalized to zero hour (substrate use), 7 hr [3]: 0.51; 590 nm absorbance normalized to zero hour (substrate use), 8 hr [3]: 0.56; 590 nm absorbance normalized to zero hour (substrate use), 9 hr [3]: 0.61; 590 nm absorbance normalized to zero hour (substrate use), 10 hr [3]: 0.60; 590 nm absorbance normalized to zero hour (substrate use), 11 hr [3]: 0.55
2 | OC[C@@H](O)[C@H](O)[C@@H](O)CO [Xylitol] | 1.02 | 1.53 | 1.57 | 1.01 | 0.40 | 1.49 | 1.02 | 0.97 | 0.97 | 1.02 | 1.51 | 1.01 | 1.69 | 2.39 | 3.14 | 3.34 | 4.25 | 4.55 | 5.13 | 4.85 | Substrate use, 590 nm absorbance normalized to zero hour, 1 hr [4]: 1.69; Substrate use, 590 nm absorbance normalized to zero hour, 5 hr [4]: 3.95; Substrate use, 590 nm absorbance normalized to zero hour, 7 hr [4]: 4.50; 590 nm absorbance normalized to zero hour (substrate use), 11 hr [2]: 5.48
3 | OC[C@H]1O[C@@H]2O[C@H]3[C@H](O)[C@@H](O)[C@@H](O[C@H]4[C@H](O)[C@@H](O)[C@@H](O[C@H]5[C@H](O)[C@@H](O)[C@@H](O[C@H]6[C@H](O)[C@@H](O)[C@@H](O[C@H]7[C@H](O)[C@@H](O)[C@@H](O[C@H]1[C@H](O)[C@H]2O)O[C@@H]7CO)O[C@@H]6CO)O[C@@H]5CO)O[C@@H]4CO)O[C@@H]3CO [a-Cyclo-dextrin] | 1.89 | 2.66 | 3.24 | 3.50 | 4.31 | 5.25 | 5.99 | 6.37 | 5.86 | 1.89 | 4.31 | 4.96 | 1.86 | 2.62 | 2.99 | 3.18 | 4.06 | 4.56 | 4.96 | 5.19 | 590 nm absorbance normalized to zero hour (substrate use), 0 hr [1]: 1.00; Substrate use, 590 nm absorbance normalized to zero hour, 0 hr [1]: 1.00; 590 nm absorbance normalized to zero hour (substrate use), 0 hr [2]: 1.00; 590 nm absorbance normalized to zero hour (substrate use), 5 hr [2]: 3.75; 590 nm absorbance normalized to zero hour (substrate use), 7 hr [2]: 4.29; 590 nm absorbance normalized to zero hour (substrate use), 11 hr [2]: 4.09; 590 nm absorbance normalized to zero hour (substrate use), 0 hr [3]: 1.00; 590 nm absorbance normalized to zero hour (substrate use), 1 hr [3]: 1.86; 590 nm absorbance normalized to zero hour (substrate use), 2 hr [3]: 2.62; 590 nm absorbance normalized to zero hour (substrate use), 3 hr [3]: 2.99; 590 nm absorbance normalized to zero hour (substrate use), 4 hr [3]: 3.18; 590 nm absorbance normalized to zero hour (substrate use), 5 hr [3]: 3.75; 590 nm absorbance normalized to zero hour (substrate use), 6 hr [3]: 4.06; 590 nm absorbance normalized to zero hour (substrate use), 7 hr [3]: 4.29; 590 nm absorbance normalized to zero hour (substrate use), 8 hr [3]: 4.56; 590 nm absorbance normalized to zero hour (substrate use), 9 hr [3]: 4.96; 590 nm absorbance normalized to zero hour (substrate use), 10 hr [3]: 5.19; 590 nm absorbance normalized to zero hour (substrate use), 11 hr [3]: 4.09
